Assay results taken from patent publication US20200009275A1, “PIGMENT-COUPLED MANNOSYL SERUM ALBUMIN COMPLEX AND LYMPH NODE-PROBING COMPOSITION COMPRISING SAME” (priority 2017, published 2020).

Legend:
[1] = biological target: T1, MSA (Homo sapiens, UniProt P02768); assay: TLC measurement of pigment not coupled to MSA; type: binding
T1 construct: purchased Green Cross Corp., Korea
Protocol: 2 ml of 200 mg/mL MSA was added thereto to prepare the reaction mixture in total volume of 3 mL. […]
Upon completion of the reaction, the amount of the pigment not coupled to MSA was measured by performing thin layer chromatography (TLC) with the pigment-coupled MSA hourly. At this time, methanol and methylene chloride (MeOH:MeCl2) mixture was used as a solvent and the results were quantitatively analyzed by multi-gauge 3.0 software using LAS3000 (Fuji Film).

[2] = Absorption peak and molecular extinction coefficient of pigment-coupled MSA; type: physicochemical; conditions: for Wavelength (absorption peak): scan 350 nm to 850 nm
Protocol: The pigment-coupled MSA solution was loaded in a 96-well plate, which was scanned with visible light ranging between 350 nm and 850 nm to measure the absorbance at the peak of absorption spectrum using Varioskan Flash (Thermo Fisher Scientific Inc., Finland) spectrometer. The molecular extinction coefficient was measured by calculating the absorbance per 1 cm length according to Beer-Lambert law.

T1 sequence (P02768 25-609): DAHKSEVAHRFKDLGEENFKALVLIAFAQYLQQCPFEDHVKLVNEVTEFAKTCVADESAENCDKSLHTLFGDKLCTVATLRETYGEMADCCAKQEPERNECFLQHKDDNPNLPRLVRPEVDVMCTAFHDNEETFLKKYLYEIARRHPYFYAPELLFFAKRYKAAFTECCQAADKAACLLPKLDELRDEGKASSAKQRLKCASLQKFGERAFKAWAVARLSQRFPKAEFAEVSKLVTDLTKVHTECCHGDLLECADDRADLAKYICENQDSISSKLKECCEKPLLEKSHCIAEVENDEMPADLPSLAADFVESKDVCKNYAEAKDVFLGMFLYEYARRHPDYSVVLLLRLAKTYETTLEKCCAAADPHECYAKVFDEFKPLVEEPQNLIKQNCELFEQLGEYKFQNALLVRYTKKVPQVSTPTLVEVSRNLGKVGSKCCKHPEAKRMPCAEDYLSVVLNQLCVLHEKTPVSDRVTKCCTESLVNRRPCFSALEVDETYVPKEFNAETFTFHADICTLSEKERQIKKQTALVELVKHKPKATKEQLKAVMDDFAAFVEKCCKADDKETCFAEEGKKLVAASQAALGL

| Molecule | Percentage of pigment not coupled to MSA ([1]; 10 min) [%] | Percentage of pigment not coupled to MSA ([1]; 30 min) [%] | Percentage of pigment not coupled to MSA ([1]; 1 hr) [%] | Percentage of pigment not coupled to MSA ([1]; 2 hr) [%] | Percentage of pigment not coupled to MSA ([1]; 6 hr) [%] | Percentage of pigment not coupled to MSA ([1]; 24 hr) [%] | Binding of pigment to MSA (in words) ([1]; Table 2) | Binding of pigment to MSA (in words) ([1]; Table 2, listed as naphthol blue black) | ε (molecular extinction coefficient) ([2]; at absorption peak, per 1 cm, Beer-Lambert law) | Wavelength (absorption peak) [2] [nm] |
| --- | --- | --- | --- | --- | --- | --- | --- | --- | --- | --- |
| Nc1c(N=Nc2ccc([N+](=O)[O-])cc2)c(S(=O)(=O)[O-])cc2cc(S(=O)(=O)[O-])c(N=Nc3ccccc3)c(O)c12.[Na+].[Na+] [NBB, naphthol blue black] | 0.0 ± 0.0 | 0.0 ± 0.0 | 0.0 ± 0.0 | 0.0 ± 0.0 | 0.2 ± 0.3 | 0.0 ± 0.0 | bind stably and strongly to MSA and high | stably bound | 62222 | 620 |
| brilliant blue R | 7.8 ± 0.5 | 7.6 ± 0.8 | 7.7 ± 0.9 | 6.3 ± 0.5 | 5.9 ± 0.6 | 3.8 ± 0.6 | – | – | – | – |
| nitrazine yellow [NY] | 9.6 ± 0.5 | 8.4 ± 0.5 | 7.2 ± 0.4 | 6.4 ± 0.4 | 0.4 ± 0.6 | 0.1 ± 0.2 | – | – | – | 560 |
